According to ChEMBL document CHEMBL2429821, “A Casein kinase 1/Checkpoint kinase 1 pyrazolo-pyridine protein kinase inhibitor as novel activator of the p53 pathway” (Bioorg Med Chem Lett, 2013):

Key:
[1] = biological target: Myosin light chain kinase, smooth muscle (Homo sapiens) (UniProt Q15746); assay: Inhibition of human smMLCK assessed as residual activity at 10 uM relative to control
[2] = biological target: MAP/microtubule affinity-regulating kinase 3 (Homo sapiens) (UniProt P27448); assay: Inhibition of human MARK3 assessed as residual activity at 10 uM relative to control
[3] = biological target: Serine/threonine-protein kinase Chk2 (Homo sapiens) (UniProt O96017); assay: Inhibition of human CHK2 assessed as residual activity at 10 uM relative to control
[4] = biological target: Cyclin-dependent kinase 2 (Homo sapiens) (UniProt P24941); assay: Inhibition of human CDK2 assessed as residual activity at 1 uM relative to control
[5] = biological target: MAP kinase-interacting serine/threonine-protein kinase 1 (Homo sapiens) (UniProt Q9BUB5); assay: Inhibition of human MNK1 assessed as residual activity at 10 uM relative to control
[6] = biological target: T1, Inhibitor of nuclear factor kappa-B kinase subunit epsilon (Homo sapiens) (UniProt Q14164); assay: Inhibition of human IKKepsilon assessed as residual activity at 10 uM relative to control
T1 sequence (whole entry): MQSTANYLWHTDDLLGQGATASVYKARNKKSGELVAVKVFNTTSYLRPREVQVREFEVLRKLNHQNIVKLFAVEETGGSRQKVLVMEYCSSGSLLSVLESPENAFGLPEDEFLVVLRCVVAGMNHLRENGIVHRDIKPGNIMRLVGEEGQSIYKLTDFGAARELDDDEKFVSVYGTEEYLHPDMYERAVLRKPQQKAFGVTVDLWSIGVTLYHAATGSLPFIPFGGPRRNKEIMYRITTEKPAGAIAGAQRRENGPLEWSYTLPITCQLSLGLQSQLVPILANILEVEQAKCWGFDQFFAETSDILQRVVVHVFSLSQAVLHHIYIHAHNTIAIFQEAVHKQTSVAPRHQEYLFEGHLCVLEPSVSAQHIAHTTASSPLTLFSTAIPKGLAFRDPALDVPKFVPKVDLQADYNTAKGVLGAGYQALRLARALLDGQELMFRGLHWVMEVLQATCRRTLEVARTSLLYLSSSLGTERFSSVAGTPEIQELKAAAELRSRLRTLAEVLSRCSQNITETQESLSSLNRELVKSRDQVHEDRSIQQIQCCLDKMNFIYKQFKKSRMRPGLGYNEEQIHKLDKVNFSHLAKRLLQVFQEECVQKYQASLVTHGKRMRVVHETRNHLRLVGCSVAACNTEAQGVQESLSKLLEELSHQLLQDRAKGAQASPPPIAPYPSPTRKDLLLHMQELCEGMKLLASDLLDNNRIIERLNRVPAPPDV

[7] = biological target: Casein kinase II (Homo sapiens) (UniProt P67870+P68400+P19784); assay: Inhibition of human CK2 assessed as residual activity at 10 uM relative to control; assay type: protein-complex assay
[8] = biological target: Fibroblast growth factor receptor 1 (Homo sapiens, UniProt P11362); assay: Inhibition of human FGFR1 assessed as residual activity at 10 uM relative to control
[9] = biological target: T2, Eukaryotic elongation factor 2 kinase (Homo sapiens) (UniProt O00418); assay: Inhibition of human EF2K assessed as residual activity at 10 uM relative to control
T2 sequence (whole entry): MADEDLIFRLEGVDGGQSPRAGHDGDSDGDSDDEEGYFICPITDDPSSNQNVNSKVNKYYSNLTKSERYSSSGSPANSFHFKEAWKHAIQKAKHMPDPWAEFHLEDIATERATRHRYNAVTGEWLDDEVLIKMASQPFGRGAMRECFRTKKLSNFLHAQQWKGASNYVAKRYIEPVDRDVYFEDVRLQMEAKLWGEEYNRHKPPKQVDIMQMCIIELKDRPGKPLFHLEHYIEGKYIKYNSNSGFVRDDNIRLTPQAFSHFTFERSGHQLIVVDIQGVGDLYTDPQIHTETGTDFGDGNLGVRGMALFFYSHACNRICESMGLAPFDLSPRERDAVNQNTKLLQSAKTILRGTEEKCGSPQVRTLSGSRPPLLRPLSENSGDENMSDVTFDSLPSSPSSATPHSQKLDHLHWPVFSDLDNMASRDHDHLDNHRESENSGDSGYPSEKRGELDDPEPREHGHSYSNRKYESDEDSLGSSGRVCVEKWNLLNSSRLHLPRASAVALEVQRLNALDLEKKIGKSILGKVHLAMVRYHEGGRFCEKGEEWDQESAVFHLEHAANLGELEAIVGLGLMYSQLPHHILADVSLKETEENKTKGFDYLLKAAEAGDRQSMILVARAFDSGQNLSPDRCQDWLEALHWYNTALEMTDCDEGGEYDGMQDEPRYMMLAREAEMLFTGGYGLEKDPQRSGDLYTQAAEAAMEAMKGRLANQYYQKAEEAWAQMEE

[10] = biological target: T3, Inhibitor of nuclear factor kappa-B kinase subunit beta (Homo sapiens) (UniProt O14920); assay: Inhibition of human IKKbeta assessed as residual activity at 1 uM relative to control
T3 sequence (whole entry): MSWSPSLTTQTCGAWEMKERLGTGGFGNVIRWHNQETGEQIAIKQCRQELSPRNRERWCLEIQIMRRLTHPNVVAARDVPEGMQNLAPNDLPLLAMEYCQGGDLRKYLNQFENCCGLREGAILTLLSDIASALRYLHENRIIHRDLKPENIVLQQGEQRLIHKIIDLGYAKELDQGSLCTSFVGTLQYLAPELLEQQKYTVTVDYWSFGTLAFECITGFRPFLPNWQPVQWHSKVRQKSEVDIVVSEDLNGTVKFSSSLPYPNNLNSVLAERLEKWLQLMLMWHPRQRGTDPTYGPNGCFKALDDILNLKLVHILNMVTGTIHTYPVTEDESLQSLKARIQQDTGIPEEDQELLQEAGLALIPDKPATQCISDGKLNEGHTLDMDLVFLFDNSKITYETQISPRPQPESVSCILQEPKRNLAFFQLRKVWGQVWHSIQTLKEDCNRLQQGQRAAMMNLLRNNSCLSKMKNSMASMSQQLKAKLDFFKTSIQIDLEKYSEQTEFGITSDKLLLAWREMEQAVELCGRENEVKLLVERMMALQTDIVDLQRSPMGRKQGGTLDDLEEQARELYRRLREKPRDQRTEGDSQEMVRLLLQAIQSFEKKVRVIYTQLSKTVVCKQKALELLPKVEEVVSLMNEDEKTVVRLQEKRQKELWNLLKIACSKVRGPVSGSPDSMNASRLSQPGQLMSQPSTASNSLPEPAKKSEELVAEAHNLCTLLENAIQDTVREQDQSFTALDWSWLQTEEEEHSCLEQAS

[11] = biological target: Serine/threonine-protein kinase Nek6 (Homo sapiens) (UniProt Q9HC98); assay: Inhibition of human NEK6 assessed as residual activity at 1 uM relative to control
[12] = biological target: Serine/threonine-protein kinase pim-1 (Homo sapiens) (UniProt P11309); assay: Inhibition of human PIM1 assessed as residual activity at 10 uM relative to control
[13] = species on record: Rattus norvegicus; assay: Inhibition of rat AMPK assessed as residual activity at 10 uM relative to control

Chain of Serine/threonine-protein kinase Nek6 (Homo sapiens) (Q9HC98 whole entry): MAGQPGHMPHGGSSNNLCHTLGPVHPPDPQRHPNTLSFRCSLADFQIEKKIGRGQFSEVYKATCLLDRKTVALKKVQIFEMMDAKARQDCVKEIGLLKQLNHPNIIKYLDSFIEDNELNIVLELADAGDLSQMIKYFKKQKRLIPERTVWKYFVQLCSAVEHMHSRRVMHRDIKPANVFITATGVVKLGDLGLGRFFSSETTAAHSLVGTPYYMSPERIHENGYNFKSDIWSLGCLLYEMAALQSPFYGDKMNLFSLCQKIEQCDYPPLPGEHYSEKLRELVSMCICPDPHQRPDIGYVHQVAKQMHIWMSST
Chain of MAP/microtubule affinity-regulating kinase 3 (Homo sapiens) (P27448 whole entry, looked up): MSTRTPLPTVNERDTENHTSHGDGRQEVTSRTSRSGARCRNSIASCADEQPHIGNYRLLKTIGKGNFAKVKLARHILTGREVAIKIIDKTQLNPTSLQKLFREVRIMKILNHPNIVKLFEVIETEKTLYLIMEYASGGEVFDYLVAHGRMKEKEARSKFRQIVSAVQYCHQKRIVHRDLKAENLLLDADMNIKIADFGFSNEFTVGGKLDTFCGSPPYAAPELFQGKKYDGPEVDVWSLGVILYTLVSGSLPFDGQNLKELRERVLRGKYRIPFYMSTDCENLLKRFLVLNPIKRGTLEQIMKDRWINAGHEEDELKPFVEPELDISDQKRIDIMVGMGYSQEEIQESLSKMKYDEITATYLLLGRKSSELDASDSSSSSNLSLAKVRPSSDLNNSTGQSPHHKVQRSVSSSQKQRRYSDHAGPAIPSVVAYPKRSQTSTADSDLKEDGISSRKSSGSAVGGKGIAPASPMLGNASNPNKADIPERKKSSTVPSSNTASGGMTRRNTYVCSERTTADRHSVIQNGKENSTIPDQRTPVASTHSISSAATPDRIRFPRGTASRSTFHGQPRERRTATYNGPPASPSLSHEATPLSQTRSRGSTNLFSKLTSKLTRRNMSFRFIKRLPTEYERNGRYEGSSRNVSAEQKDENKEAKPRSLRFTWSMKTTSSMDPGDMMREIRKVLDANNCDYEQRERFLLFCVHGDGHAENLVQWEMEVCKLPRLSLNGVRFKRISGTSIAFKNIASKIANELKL
Chain of Fibroblast growth factor receptor 1 (P11362 22-822 limits assumed): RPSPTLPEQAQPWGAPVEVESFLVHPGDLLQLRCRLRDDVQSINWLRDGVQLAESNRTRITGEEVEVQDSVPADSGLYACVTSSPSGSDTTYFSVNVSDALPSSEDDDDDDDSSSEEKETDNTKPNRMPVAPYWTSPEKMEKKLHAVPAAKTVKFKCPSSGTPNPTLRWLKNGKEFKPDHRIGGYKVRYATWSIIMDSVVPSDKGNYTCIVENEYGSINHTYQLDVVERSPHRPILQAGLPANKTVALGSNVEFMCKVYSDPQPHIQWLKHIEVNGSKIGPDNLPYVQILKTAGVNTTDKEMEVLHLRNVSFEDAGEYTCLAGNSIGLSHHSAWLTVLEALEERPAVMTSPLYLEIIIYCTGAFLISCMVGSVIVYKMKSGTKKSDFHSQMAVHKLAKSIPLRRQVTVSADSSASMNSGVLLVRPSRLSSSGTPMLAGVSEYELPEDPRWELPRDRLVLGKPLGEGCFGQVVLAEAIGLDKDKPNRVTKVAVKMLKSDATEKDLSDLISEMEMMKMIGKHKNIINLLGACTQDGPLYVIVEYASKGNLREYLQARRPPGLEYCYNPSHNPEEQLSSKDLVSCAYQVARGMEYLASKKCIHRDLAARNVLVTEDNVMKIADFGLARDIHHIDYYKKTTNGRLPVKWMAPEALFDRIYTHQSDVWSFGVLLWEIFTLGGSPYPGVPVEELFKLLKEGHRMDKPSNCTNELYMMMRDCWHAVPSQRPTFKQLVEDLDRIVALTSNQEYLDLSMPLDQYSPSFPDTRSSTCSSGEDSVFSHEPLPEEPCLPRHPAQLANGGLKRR
Chain of Myosin light chain kinase, smooth muscle (Homo sapiens) (Q15746 whole entry): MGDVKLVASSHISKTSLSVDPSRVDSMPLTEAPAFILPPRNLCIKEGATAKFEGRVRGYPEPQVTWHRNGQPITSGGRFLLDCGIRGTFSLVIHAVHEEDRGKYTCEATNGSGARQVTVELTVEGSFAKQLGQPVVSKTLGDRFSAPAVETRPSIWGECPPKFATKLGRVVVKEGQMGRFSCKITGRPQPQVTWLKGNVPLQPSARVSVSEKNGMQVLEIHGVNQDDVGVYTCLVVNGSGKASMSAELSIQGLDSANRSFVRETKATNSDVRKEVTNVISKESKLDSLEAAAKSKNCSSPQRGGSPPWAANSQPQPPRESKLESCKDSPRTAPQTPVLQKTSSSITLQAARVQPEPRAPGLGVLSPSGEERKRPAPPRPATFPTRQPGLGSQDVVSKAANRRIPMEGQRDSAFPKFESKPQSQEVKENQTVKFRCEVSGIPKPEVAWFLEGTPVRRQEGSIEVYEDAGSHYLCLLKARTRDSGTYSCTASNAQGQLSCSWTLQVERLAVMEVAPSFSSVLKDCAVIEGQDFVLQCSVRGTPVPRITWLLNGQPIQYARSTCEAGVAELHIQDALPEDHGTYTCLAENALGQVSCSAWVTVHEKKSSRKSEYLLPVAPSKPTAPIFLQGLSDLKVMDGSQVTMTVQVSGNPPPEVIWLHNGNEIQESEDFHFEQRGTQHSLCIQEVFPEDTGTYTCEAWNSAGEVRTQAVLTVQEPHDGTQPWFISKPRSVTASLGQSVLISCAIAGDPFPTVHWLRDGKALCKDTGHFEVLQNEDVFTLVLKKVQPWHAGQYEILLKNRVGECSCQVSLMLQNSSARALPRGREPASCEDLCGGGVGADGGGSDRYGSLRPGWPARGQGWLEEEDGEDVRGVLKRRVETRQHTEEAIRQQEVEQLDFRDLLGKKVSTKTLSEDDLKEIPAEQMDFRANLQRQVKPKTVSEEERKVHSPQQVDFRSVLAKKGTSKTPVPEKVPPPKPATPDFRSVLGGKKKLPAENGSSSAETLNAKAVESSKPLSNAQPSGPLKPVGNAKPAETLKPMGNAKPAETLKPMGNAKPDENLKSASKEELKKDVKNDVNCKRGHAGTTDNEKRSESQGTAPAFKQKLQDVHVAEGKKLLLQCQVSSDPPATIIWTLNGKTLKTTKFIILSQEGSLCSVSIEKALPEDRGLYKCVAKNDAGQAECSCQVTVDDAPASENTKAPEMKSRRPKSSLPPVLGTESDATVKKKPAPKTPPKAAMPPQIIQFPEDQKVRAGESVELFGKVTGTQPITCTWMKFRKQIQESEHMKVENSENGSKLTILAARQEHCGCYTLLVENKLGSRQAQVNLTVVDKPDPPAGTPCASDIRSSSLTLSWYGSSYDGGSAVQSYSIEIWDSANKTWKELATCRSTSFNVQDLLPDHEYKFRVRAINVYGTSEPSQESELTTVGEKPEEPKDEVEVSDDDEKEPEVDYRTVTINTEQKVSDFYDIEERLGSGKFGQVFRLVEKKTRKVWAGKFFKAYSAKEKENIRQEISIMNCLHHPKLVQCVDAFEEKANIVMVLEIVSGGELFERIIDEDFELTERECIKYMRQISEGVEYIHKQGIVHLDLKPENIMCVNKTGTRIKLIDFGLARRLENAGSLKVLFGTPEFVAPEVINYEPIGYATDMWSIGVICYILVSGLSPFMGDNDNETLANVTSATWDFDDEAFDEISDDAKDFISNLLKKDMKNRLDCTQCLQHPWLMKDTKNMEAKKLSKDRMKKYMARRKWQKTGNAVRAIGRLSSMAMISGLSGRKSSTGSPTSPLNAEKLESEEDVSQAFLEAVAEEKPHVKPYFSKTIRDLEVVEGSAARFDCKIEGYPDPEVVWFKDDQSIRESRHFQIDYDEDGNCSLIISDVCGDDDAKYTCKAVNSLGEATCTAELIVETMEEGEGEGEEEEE
Chain of Serine/threonine-protein kinase Chk2 (Homo sapiens) (O96017 whole entry): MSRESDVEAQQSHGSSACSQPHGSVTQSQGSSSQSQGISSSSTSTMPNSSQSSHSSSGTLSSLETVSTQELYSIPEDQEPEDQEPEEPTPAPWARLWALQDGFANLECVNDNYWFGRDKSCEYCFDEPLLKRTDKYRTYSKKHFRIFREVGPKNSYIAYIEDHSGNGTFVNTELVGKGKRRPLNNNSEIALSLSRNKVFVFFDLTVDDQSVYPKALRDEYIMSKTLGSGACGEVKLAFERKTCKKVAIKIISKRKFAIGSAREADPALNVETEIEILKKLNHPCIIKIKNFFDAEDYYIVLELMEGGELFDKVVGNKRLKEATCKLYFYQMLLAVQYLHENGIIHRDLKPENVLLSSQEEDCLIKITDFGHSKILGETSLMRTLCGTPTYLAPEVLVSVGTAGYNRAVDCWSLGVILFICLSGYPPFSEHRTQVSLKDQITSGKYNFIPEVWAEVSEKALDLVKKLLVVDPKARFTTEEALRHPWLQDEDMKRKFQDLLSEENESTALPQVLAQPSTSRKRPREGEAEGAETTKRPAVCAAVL
Chain of MAP kinase-interacting serine/threonine-protein kinase 1 (Homo sapiens) (Q9BUB5 whole entry, looked up): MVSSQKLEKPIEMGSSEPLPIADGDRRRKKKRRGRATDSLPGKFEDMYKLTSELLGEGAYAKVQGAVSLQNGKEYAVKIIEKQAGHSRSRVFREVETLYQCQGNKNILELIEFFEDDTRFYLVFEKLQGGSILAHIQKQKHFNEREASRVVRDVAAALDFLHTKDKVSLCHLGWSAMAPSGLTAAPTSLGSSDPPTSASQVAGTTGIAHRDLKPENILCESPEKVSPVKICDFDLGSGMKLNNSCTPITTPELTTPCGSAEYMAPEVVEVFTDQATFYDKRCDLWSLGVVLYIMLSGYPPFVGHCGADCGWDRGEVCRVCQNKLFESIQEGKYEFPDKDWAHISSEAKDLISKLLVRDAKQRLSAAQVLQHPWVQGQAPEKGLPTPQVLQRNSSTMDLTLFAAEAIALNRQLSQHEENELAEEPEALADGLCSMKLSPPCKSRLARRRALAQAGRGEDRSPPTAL

SMILES	Activity [1] [%]	Activity [2] [%]	Activity [3] [%]	Activity [4] [%]	Activity [5] [%]	Activity [6] [%]	Activity [7] [%]	Activity [8] [%]	Activity [9] [%]	Activity [10] [%]	Activity [11] [%]	Activity [12] [%]	Activity [13] [%]
CCCC(=O)Nc1n[nH]c2ncc(-c3cccnc3)cc12	62	62	96	9	91	89	68	68	95	70	86	53	105
CC(=O)Nc1nccc(-c2c(-c3ccccc3)noc2C)n1	79.3	79.2	78.8	92.2	102	82.4	107	99.6	83	44.4	64.9	88.9	101
CC(=O)Nc1cccc(-c2cnc3[nH]nc(C)c3c2)c1	45.6	17.9	28.9	76.7	19.3	52	80.5	54.6	106	97	77.3	28.2	69.9
